# Results taken from PubChem BioAssay AID602267 (Broad Institute, 2012).
# Activity calls are given as the source filed them.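 The calls were made as follows: active = signal falls with dose and the fitted half-maximal concentration is at or below twice the top valid tested dose; inconclusive = flat curve with 30 to 70% inhibition, or poor fit; inactive = wrong direction, flat within 30%, or potency beyond limit.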
# Molecular target: Golgi-associated PDZ and coiled-coil motif-containing protein (Homo sapiens) (UniProt Q9HD26)
# Experiment: CAL PDZ domain peptide-binding inhibitors, dose response, biochemical, fluorescence polarization, untagged CAL PDZ, cherry-pick (AID 602267);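 as to activity change, negative = inhibition: 0% = DMSO neutral wells and -100% = excess unlabeled competitor peptide wells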
# Details: purified CAL PDZ, TMR-peptide fluorescence polarization, 1 h
row,Compound,AC50 [µM]
1,O=C(O)CSc1cc(NS(=O)(=O)c2ccc(Cl)cc2)c2ccccc2c1O,32.9
2,O=C(O)CSc1cc(NS(=O)(=O)c2cccc([N+](=O)[O-])c2)c2ccccc2c1O,15.9

# Same assay, conditions: purified CAL PDZ, TMR-peptide fluorescence polarization, 1 h; at 16 µM (top of the series)
row,Compound,"activity change, negative = inhibition"
1,COCCCNC(=O)c1c[nH]c2ccc(S(=O)(=O)N3CCC(C)CC3)cc2c1=O,inactive
2,O=c1[nH]c(CN2CC=C(c3ccccc3)CC2)nc2scc(-c3ccccc3)c12,inactive
3,COc1cccc(NC(=O)N2CCCCCC2)c1,inactive

# Same assay, conditions: purified CAL PDZ, TMR-peptide fluorescence polarization, 1 h; at 50 µM (top of the series)
row,Compound,"activity change, negative = inhibition"
1,COc1ccc(S(=O)(=O)N2CCOCC2)cc1NC(=O)CN1CCCCCC1,inactive
2,Cc1nn(C)c(C)c1S(=O)(=O)N1CCC(CO)(CC2CCCCO2)CC1 (configuration not stated),inactive
3,COn1c(SCc2ccccc2)nc2ccccc2c1=O,inactive
4,Cc1sc2ncn(CC(=O)NCCCC(=O)N3CCN(Cc4ccc5c(c4)OCO5)CC3)c(=O)c2c1C,inactive
5,CSc1cccc(NC(=O)N2CCCC(CNS(=O)(=O)Cc3ccccc3)C2)c1 (configuration not stated),inactive
6,COc1cc(C(=O)ON=C2C(C)=CC(=O)C=C2C)cc(OC)c1OC,inactive
7,Cc1ccc(NC(=O)CN(C)CC(=O)Nc2cccc(F)c2)cc1S(=O)(=O)N1CCCCCC1,inactive
8,COc1ccc(/C=C2\N=C(c3ccc(C)cc3)OC2=O)cc1,inactive
9,COC(=O)c1ccc(CNC(=O)COC(=O)c2cc(Cl)nc(Cl)c2)cc1,inactive
10,O=C(NCC1CCCO1)c1cn(-c2ccccc2)nc1-c1ccc(F)cc1 (configuration not stated),inactive
11,Cc1cccc(Nc2nc(-c3ccc(F)cc3)cs2)n1,inactive
12,Cc1cc(C)c2nc(-c3ccncc3)cc(C(=O)N3CCN(Cc4ccccc4Cl)CC3)c2c1,inactive
13,Cc1ccc(-c2nc3ccccc3c(=O)o2)cc1,inactive
14,COc1ccc(NC(=O)c2ccc3c(c2)NC(=O)CO3)cc1OC,inactive
15,Cc1cc(C)c(OCC(=O)OC(C)C(=O)NC2CC2)c(C)c1 (configuration not stated),inactive
16,CC(C)(C)OC(=O)N[C@@H](Cc1c[nH]c2ccccc12)c1nnc(SCC(N)=O)o1,inactive
17,O=C(c1ccc([N+](=O)[O-])cc1)N1CCC(Cc2ccccc2)CC1,inactive
18,CCC1C(=O)NCCN1C(=O)CCc1nnc(CCc2ccc(OC)cc2)o1 (configuration not stated),inactive
19,O=C(NCc1ccc(Cl)cc1)C(=O)NCC1OCCN1C(=O)c1ccc(Cl)cc1 (configuration not stated),inactive
20,CSc1ccccc1NC(=O)c1ccccc1,inactive
21,CN(C)/N=C1\CCS(=O)(=O)c2sccc21,inactive
22,Cc1cc(NC(=O)Cc2ccc(Br)cc2)no1,inactive
23,CC1CCCN(C(=O)Cc2cccc3ccccc23)C1 (configuration not stated),inactive

row,Compound,"activity change, negative = inhibition"
1,O=C(/C=C/c1cccs1)Nc1scc(-c2ccccc2)c1C(=O)O,inactive
2,COC(=O)C(C(=O)OC)c1ccc(N)cc1,inactive
3,Nc1ccc(N(CCO)CCO)cc1,inactive
4,C(=C/c1nccc2c1[nH]c1ccccc12)/c1ccc2c(c1)OCO2,inactive
5,COC(=O)[C@H]1[C@H]2C[C@@H]3c4[nH]c5cc(OC)ccc5c4CCN3C[C@H]2C[C@@H](OC(=O)/C=C/c2cc(OC)c(OC)c(OC)c2)[C@@H]1OC,inactive
6,Cc1ccc(S(=O)(=O)N2CCN(C(=O)c3cc(=O)c4ccccc4o3)CC2)cc1,inactive
7,Cc1ccc2nc3c(nc2c1)-c1ccccc1C3=O,inactive
8,C(=N\N1CCOCC1)/c1nc(-c2ccccc2)n2ccccc12,inactive
9,CCOc1ccc(C2=Nn3c(nnc3-c3ccco3)SC2)cc1,inactive
10,CCCCOc1ccc(C(=O)N2CCNC(=O)C2CC(=O)OC(C)C)cc1 (configuration not stated),inactive
11,Cc1ccc2nc(NCc3ccc(F)cc3)c3nncn3c2c1,inactive
12,Cc1cccc(C)c1NC(=S)NC(=O)c1ccc(Br)o1,inactive
13,Cc1ccc2nc(NS(C)(=O)=O)sc2c1,inactive
14,O=C(NCc1ccccn1)c1ccc(NS(=O)(=O)c2ccccc2)cc1,inactive
15,Cc1nc(N)c(CC(Br)CBr)c(Cl)n1 (configuration not stated),inactive
16,COc1ccc2ccn(S(=O)(=O)c3ccccc3)c2c1,inactive
17,O=C(Nc1nccs1)c1ccc(F)c(S(=O)(=O)N2CCOCC2)c1,inactive
18,Cc1ccc(-c2[nH]c3ccccc3c2SCCN)cc1,inactive
19,COc1ccc(OC)c(NC(=O)c2ccc(OC3CSC3)cc2)c1,inactive
20,O=C(CCCn1c(=S)[nH]c2cc3c(cc2c1=O)OCO3)N1CCN(c2ccc(Cl)cc2)CC1,inactive
21,CC(=O)N1N=C(c2ccccc2)CC1c1ccccc1 (configuration not stated),inactive
22,COc1cc(/C=C2\C(=O)NC(=O)N(c3ccccc3)C2=O)c([N+](=O)[O-])cc1OC,inactive
23,COc1ccc(C2/C(=C(/O)c3ccc(C)cc3)C(=O)C(=O)N2C)c(OC)c1 (configuration not stated),inactive

row,Compound,"activity change, negative = inhibition"
1,CCN(CC)CCn1c(SCC(=O)NCc2ccccc2)nc2c(sc3ccccc32)c1=O,inactive
2,O=C1OC2(CCCCC2)OC(=O)C1=CNc1nc2ccccc2s1,inactive
3,Cc1nc2ccc(Br)cn2c1C(=O)N/N=C\c1ccc(C(C)C)cc1,inactive
4,Cc1ccc(C(C)NC(=O)Cc2cccs2)c(C)c1 (configuration not stated),inactive
5,CCOCCCNC(=O)c1ccc2c(=O)n(Cc3ccc4c(c3)OCO4)c(=S)[nH]c2c1,inactive
6,COc1cc(Br)c(C(=O)c2nccc3cc(OC)c(OC)cc23)cc1OC,inactive
7,CC(=O)Nc1ccc(N/C=C/C(=O)c2ccccc2)cc1,inactive
8,CCN(C(=O)CSc1ncccc1C(=O)O)C1CCCCC1,inactive
9,Cc1ccc(/C=N/NC(=O)NN(C)c2ncc(C(F)(F)F)cc2Cl)cc1,inactive
10,O=C(CSc1nccc(=O)[nH]1)Nc1ccc(Oc2ccccc2)cc1,inactive
11,CC(C)n1cc(C(=O)N2CCCC(N3CCN(c4ccc(F)cc4)CC3)C2)cn1 (configuration not stated),inactive
12,O=C(NNS(=O)(=O)c1ccc(Cl)cc1)c1cccs1,inactive
13,COc1ccc(C(C)=O)cc1COC(=O)CNC(=O)c1ccccc1F,inactive
14,Cc1nn(C)cc1CN(C)C(=O)c1nn2c(c1Br)NC(c1cccs1)CC2C(F)(F)F (configuration not stated),inactive
15,CN(C)CCNC(=O)COc1cccc2c1OC(C)(C)C2,inactive
16,CC1=NN(C(N)=S)C(=O)C1N=Nc1ccc(Cl)cc1 (configuration not stated),inactive
17,O=C(COC(=O)c1ccc(Cl)nc1)Nc1ccc(N2CCCCC2)cc1,inactive
18,Cn1c(=O)c2c(nc(-c3ccc(N(CCCl)CCCl)cc3)n2C)n(C)c1=O,inactive
19,COc1ccc(CSc2ncnc3sccc23)cc1F,inactive
20,COc1cc([N+](=O)[O-])ccc1NC(=O)CN1CCN(C(=O)c2ccco2)CC1,inactive
21,COc1ccc(Br)c(C(=O)NC2CCCC2)c1,inactive
